Laboratory results from patent publication US11649255B2, “Indazoles as hematopoietic progenitor kinase 1 (HPK1) inhibitors and methods using same” (1st Biotherapeutics, Inc., priority 2020, dated 2023).
pIC50: −log10 of the molar value.

Target: recombinant human HPK1 (Homo sapiens (Human), UniProt Q92918)
Test: HPK1 kinase assay (ADP-Glo)
Type: biochemical
Conditions: 25 μM ATP, MBP substrate
Experimental: HPK1 kinase activity was measured by Promega's ADP-Glo™ kinase assay. In this assay, 5 ng of recombinant human HPK1 (signalchem) is incubated with 5 μL of compounds (0.5% DMSO), 5 μL of MBP (0.5 μg/μl) and 5 μL of ATP (25 μM) in buffer (40 mM Tris, 7.5; 20 mM MgCl2; 0.1 mg/ml BSA; 5 μM DTT). The assay was started by incubating the reaction mixture in a 96-well plate at 30′ C for 40 minutes. After the incubation, 25 uL ADP-Glo reagent was added and the reaction was incubated at room temperature for 40-min to stop the reaction and degrade residual ATP. The ADP product was then converted to ATP by adding 50 uL per well of detection reagent. Luminescence was detected after 30-min room temperature incubation with the Molecular device I3X plate reader. The IC50 values were calculated from a series of percent inhibition values determined at a range of inhibitor concentration using software routines as implemented in the GraphPad Prism 7 software and SigmaPlot13.0.

Chain of recombinant human HPK1 (Q92918 whole entry): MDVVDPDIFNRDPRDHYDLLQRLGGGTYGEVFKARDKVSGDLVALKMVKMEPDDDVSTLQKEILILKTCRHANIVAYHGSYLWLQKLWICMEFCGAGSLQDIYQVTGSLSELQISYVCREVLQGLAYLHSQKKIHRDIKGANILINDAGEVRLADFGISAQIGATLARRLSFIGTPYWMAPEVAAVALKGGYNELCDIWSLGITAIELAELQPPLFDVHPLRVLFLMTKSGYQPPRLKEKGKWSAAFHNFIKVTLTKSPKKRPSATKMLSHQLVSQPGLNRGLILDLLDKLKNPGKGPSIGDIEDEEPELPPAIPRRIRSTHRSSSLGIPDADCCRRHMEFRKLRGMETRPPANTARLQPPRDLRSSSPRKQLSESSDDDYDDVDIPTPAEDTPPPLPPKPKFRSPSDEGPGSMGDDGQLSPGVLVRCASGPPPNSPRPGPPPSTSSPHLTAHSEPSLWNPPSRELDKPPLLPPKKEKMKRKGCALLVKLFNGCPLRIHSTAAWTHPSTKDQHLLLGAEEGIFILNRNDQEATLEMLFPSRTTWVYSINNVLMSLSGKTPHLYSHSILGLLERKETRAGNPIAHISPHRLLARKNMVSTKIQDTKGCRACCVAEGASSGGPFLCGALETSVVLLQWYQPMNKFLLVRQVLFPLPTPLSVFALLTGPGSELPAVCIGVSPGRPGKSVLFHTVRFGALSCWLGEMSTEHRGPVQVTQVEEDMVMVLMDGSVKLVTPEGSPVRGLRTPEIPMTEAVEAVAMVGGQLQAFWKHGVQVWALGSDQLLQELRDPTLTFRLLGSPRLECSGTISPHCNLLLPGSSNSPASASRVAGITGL

| Structure (SMILES) | pIC50 |
| --- | --- |
| C#Cc1ccc2[nH]ncc2c1-c1ccc2nc(NC(=O)[C@@H]3C[C@@H]3F)sc2c1 [Example 39, (1S,2S)-N-(6-(5-ethynyl-1H-indazol-4-yl)benzo[d]thiazol-2-yl)-2-fluorocyclopropane-1-carboxamide] | 6.30 to 7.00 |
| Cc1c(F)cc2[nH]ncc2c1-c1ccc2nc(NC(=O)[C@@H]3C[C@@H]3F)sc2c1 [Example 40, (1S,2S)-2-fluoro-N-(6-(6-fluoro-5-methyl-1H-indazol-4-yl)benzo[d]thiazol-2-yl)cyclopropane-1-carboxamide] | > 7.00 |
| O=C(Nc1nc2ccc(-c3c(Cl)c(F)cc4[nH]ncc34)cc2s1)[C@@H]1C[C@@H]1F [Example 41, (1S,2S)-N-(6-(5-chloro-6-fluoro-1H-indazol-4-yl)benzo[d]thiazol-2-yl)-2-fluorocyclopropane-1-carboxamide] | 6.30 to 7.00 |
| O=C(Nc1nc2ccc(-c3c(Br)c(F)cc4[nH]ncc34)cc2s1)[C@@H]1C[C@@H]1F [Example 42, (1S,2S)-N-(6-(5-bromo-6-fluoro-1H-indazol-4-yl)benzo[d]thiazol-2-yl)-2-fluorocyclopropane-1-carboxamide] | 6.30 to 7.00 |
| Cc1c(F)cc2[nH]nc(Cl)c2c1-c1ccc2nc(NC(=O)[C@@H]3C[C@@H]3F)sc2c1 [Example 44, (1S,2S)-N-(6-(3-chloro-6-fluoro-5-methyl-1H-indazol-4-yl)benzo[d]thiazol-2-yl)-2-fluorocyclopropane-1-carboxamide] | 6.00 to 6.30 |
| Cc1c(F)cc2[nH]nc(I)c2c1-c1ccc2nc(NC(=O)[C@@H]3C[C@@H]3F)sc2c1 [Example 45, (1S,2S)-2-fluoro-N-(6-(6-fluoro-3-iodo-5-methyl-1H-indazol-4-yl)benzo[d]thiazol-2-yl)cyclopropane-1-carboxamide] | < 6.00 |
| CCc1c(F)cc2[nH]ncc2c1-c1ccc2nc(NC(=O)[C@@H]3C[C@@H]3F)sc2c1 [Example 46, (1S,2S)-N-(6-(5-ethyl-6-fluoro-1H-indazol-4-yl)benzo[d]thiazol-2-yl)-2-fluorocyclopropane-1-carboxamide] | > 7.00 |
| C#Cc1c(F)cc2[nH]ncc2c1-c1ccc2nc(NC(=O)[C@@H]3C[C@@H]3F)sc2c1 [Example 47, (1S,2S)-N-(6-(5-ethynyl-6-fluoro-1H-indazol-4-yl)benzo[d]thiazol-2-yl)-2-fluorocyclopropane-1-carboxamide] | > 7.00 |
| O=C(Nc1nc2ccc(-c3c(I)c(F)cc4[nH]ncc34)cc2s1)[C@@H]1C[C@@H]1F [Example 48, (1S,2S)-2-fluoro-N-(6-(6-fluoro-5-iodo-1H-indazol-4-yl)benzo[d]thiazol-2-yl)cyclopropane-1-carboxamide] | > 7.00 |
| Cc1c(F)cc2[nH]nc(Br)c2c1-c1ccc2nc(NC(=O)[C@@H]3C[C@@H]3F)sc2c1 [Example 49, (1S,2S)-N-(6-(3-bromo-6-fluoro-5-methyl-1H-indazol-4-yl)benzo[d]thiazol-2-yl)-2-fluorocyclopropane-1-carboxamide] | 6.00 to 6.30 |
| O=C(Nc1nc2ccc(-c3c(C(F)(F)F)c(F)cc4[nH]ncc34)cc2s1)[C@@H]1C[C@@H]1F [Example 50, (1S,2S)-2-fluoro-N-(6-(6-fluoro-5-(trifluoromethyl)-1H-indazol-4-yl)benzo[d]thiazol-2-yl)cyclopropane-1-carboxamide] | > 7.00 |
| Cc1c(F)c(Cl)c2[nH]ncc2c1-c1ccc2nc(NC(=O)[C@@H]3C[C@@H]3F)sc2c1 [Example 51, (1S,2S)-N-(6-(7-chloro-6-fluoro-5-methyl-1H-indazol-4-yl)benzo[d]thiazol-2-yl)-2-fluorocyclopropane-1-carboxamide] | > 7.00 |
| C=Cc1n[nH]c2cc(F)c(C)c(-c3ccc4nc(NC(=O)[C@@H]5C[C@@H]5F)sc4c3)c12 [Example 52, (1S,2S)-2-fluoro-N-(6-(6-fluoro-5-methyl-3-vinyl-1H-indazol-4-yl)benzo[d]thiazol-2-yl)cyclopropane-1-carboxamide] | < 6.00 |
| Cc1c(F)c(Cl)c2[nH]nc(Cl)c2c1-c1ccc2nc(NC(=O)[C@@H]3C[C@@H]3F)sc2c1 [Example 53, (1S,2S)-N-(6-(3,7-dichloro-6-fluoro-5-methyl-1H-indazol-4-yl)benzo[d]thiazol-2-yl)-2-fluorocyclopropane-1-carboxamide] | 6.30 to 7.00 |
| Cc1c(F)c(Cl)c2[nH]nc(Cl)c2c1-c1cc(Cl)c2nc(NC(=O)[C@@H]3C[C@@H]3F)sc2c1 [Example 54, (1S,2S)-N-(4-chloro-6-(3,7-dichloro-6-fluoro-5-methyl-1H-indazol-4-yl)benzo[d]thiazol-2-yl)-2-fluorocyclopropane-1-carboxamide] | < 6.00 |
| Cc1c(F)c(F)c2[nH]nc(F)c2c1-c1ccc2nc(NC(=O)[C@@H]3C[C@@H]3F)sc2c1 [Example 55, (1S,2S)-2-fluoro-N-(6-(3,6,7-trifluoro-5-methyl-1H-indazol-4-yl)benzo[d]thiazol-2-yl)cyclopropane-1-carboxamide] | 6.30 to 7.00 |
| Cc1c(F)c(Cl)c(-c2ccc3nc(NC(=O)[C@@H]4C[C@@H]4F)sc3c2)c2cn[nH]c12 [Example 57, (1S,2S)-N-(6-(5-chloro-6-fluoro-7-methyl-1H-indazol-4-yl)benzo[d]thiazol-2-yl)-2-fluorocyclopropane-1-carboxamide] | > 7.00 |
| CSc1c(F)c(Cl)c(-c2ccc3nc(NC(=O)[C@@H]4C[C@@H]4F)sc3c2)c2cn[nH]c12 [Example 58, (1S,2S)-N-(6-(5-chloro-6-fluoro-7-(methylthio)-1H-indazol-4-yl)benzo[d]thiazol-2-yl)-2-fluorocyclopropane-1-carboxamide] | > 7.00 |
| Cc1c(F)c(C)c2[nH]ncc2c1-c1ccc2nc(NC(=O)[C@@H]3C[C@@H]3F)sc2c1 [Example 59, (1S,2S)-2-fluoro-N-(6-(6-fluoro-5,7-dimethyl-1H-indazol-4-yl)benzo[d]thiazol-2-yl)cyclopropane-1-carboxamide] | > 7.00 |
| CP(C)(=O)c1c(F)c(Cl)c(-c2ccc3nc(NC(=O)[C@@H]4C[C@@H]4F)sc3c2)c2cn[nH]c12 [Example 60, (1S,2S)-N-(6-(5-chloro-7-(dimethylphosphoryl)-6-fluoro-1H-indazol-4-yl)benzo[d]thiazol-2-yl)-2-fluorocyclopropane-1-carboxamide] | < 6.00 |
| C=Cc1c(F)c(Cl)c(-c2ccc3nc(NC(=O)[C@@H]4C[C@@H]4F)sc3c2)c2cn[nH]c12 [Example 61, (1S,2S)-N-(6-(5-chloro-6-fluoro-7-vinyl-1H-indazol-4-yl)benzo[d]thiazol-2-yl)-2-fluorocyclopropane-1-carboxamide] | > 7.00 |
| C=Cc1c(F)c(C)c(-c2ccc3nc(NC(=O)[C@@H]4C[C@@H]4F)sc3c2)c2cn[nH]c12 [Example 62, (1S,2S)-2-fluoro-N-(6-(6-fluoro-5-methyl-7-vinyl-1H-indazol-4-yl)benzo[d]thiazol-2-yl)cyclopropane-1-carboxamide] | 6.30 to 7.00 |
| C[S+]([O-])c1c(F)c(Cl)c(-c2ccc3nc(NC(=O)[C@@H]4C[C@@H]4F)sc3c2)c2cn[nH]c12 (stereo partly drawn) [Example 63, (1S,2S)-N-(6-(5-chloro-6-fluoro-7-(methylsulfinyl)-1H-indazol-4-yl)benzo[d]thiazol-2-yl)-2-fluorocyclopropane-1-carboxamide] | > 7.00 |
